According to patent US20080194585A1, “Fungicidal Pyrazine Derivatives” (priority 2005, published 2008):
Marks after values point to notes of the source that are not given here.

What was measured:
Details in all cases: 100 = 100% disease control
[1] = test system: Plasmopara viticola; assay: Test D: grape downy mildew, spray after inoculation of grape seedlings; format: in vivo
Description: Upon removal, disease ratings were made. […] A dash (-) indicates no test results.

[2] = test system: Phytophthora infestans; assay: whole plant or invertebrate; format: in vivo
[3] = test system: Septoria tritici; assay: Test J: wheat leaf blotch, preventive spray on wheat seedlings; format: in vivo
Description: A dash (-) indicates no test results.

[4] = test system: fusarium graminearium; assay: Test I: wheat head scab, preventive spray on wheat seedlings
Description: (the causal agent of wheat head scab) and incubated in a saturated atmosphere at 20° C. for 72 h, and then moved to a growth chamber at 22° C. for 5 days, after which disease ratings were made.

[5] = test system: Puccinia recondita f. sp. tritici; assay: Test K: wheat leaf rust, preventive spray on wheat seedlings
[6] = test system: Botrytis cinerea; assay: Test E: tomato botrytis, preventive spray on tomato seedlings
[7] = test system: Septoria nodorum; assay: Test H: wheat glum blotch, preventive spray on wheat seedlings
Description: (the causal agent of wheat glum blotch) and incubated in a saturated atmosphere at 20° C. for 48 h, and then moved to a growth chamber at 22° C. for 5 days, after which disease ratings were made.

[8] = test system: Erysiphe graminis f. sp. tritici; assay: Test L: wheat powdery mildew, preventive spray on wheat seedlings
[9] = test system: Pythium aphanidermatum; assay: Test A: bluegrass pythium blight, preventive spray on bluegrass seedlings
[10] = test system: Rhizoctonia oryzae; assay: Test G: turf brown patch, preventive spray on creeping bent grass seedlings
Description: (the causal agent of turf brown patch) and incubated in a saturated atmosphere at 27° C. for 24 h, and then moved to a growth chamber at 27° C. for 5 days, after which disease ratings were made.

[11] = test system: Colletotrichum orbiculare; assay: Test B: cucumber Colletotrichum anthracnose, preventive spray on cucumber seedlings
[12] = 40 ppm (marked *), 0 = no control
[13] = 200 ppm, 0 = no control relative to controls

Compound | Test D disease control rating [1, 12] | Test F disease control rating [2, 12] | Test J disease control rating [3, 12] | Test I disease control rating [4, 12] | Test K disease control rating [5, 12] | Test E disease control rating [6, 12] | Test H disease control rating [7, 12] | Test L disease control rating [8, 12] | Test A disease control rating [9, 12] | Test G disease control rating [10, 12] | Test B disease control rating [11, 12] | Test G disease control rating [10, 13] [%] | Test D disease control rating [1, 13] [%] | Test F disease control rating [2, 13] [%] | Test J disease control rating [3, 13] [%] | Test I disease control rating [4, 13] [%] | Test L disease control rating [8, 13] [%] | Test A disease control rating [9, 13] [%] | Test K disease control rating [5, 13] [%] | Test E disease control rating [6, 13] [%] | also measured
Cc1ccn(-c2nc(Cl)c(-c3c(F)cccc3F)n(-c3cccc(C)c3C)c2=O)n1 [compound 379] | 0* % | 0* % | 100* % | 0* % | 95* % | 98* % | 90* % | 40* % | 0* % | 0* % | 0* % | – | – | – | – | – | – | – | – | – | –
O=c1c(-n2cccn2)nc(Cl)c(-c2c(F)cccc2F)n1-c1cccc(F)c1F [compound 380] | 0* % | 0* % | 99* % | 60* % | 100* % | 99* % | 99* % | 99* % | 0* % | – | 96* % | 60 | – | – | – | – | – | – | – | – | –
Cc1ccn(-c2nc(Cl)c(-c3c(F)cccc3F)n(-c3cccc(F)c3F)c2=O)n1 [compound 381] | 0* % | 0* % | 100* % | 0* % | 100* % | 100* % | 99* % | 76* % | 0* % | 16* % | 78* % | – | – | – | – | – | – | – | – | – | –
O=c1c(-n2cccn2)nc(Cl)c(-c2c(F)cccc2F)n1-c1ccc(F)cc1 [compound 382] | 0* % | 0* % | 100* % | 0* % | 100* % | 99* % | 99* % | 50* % | 0* % | – | 63* % | 16 | – | – | – | – | – | – | – | – | –
Cc1ccn(-c2nc(Cl)c(-c3c(F)cccc3F)n(-c3ccc(F)cc3)c2=O)n1 [compound 383] | 0* % | 0* % | 100* % | 0* % | 100* % | 99* % | 100* % | 99* % | 0* % | 49* % | 63* % | – | – | – | – | – | – | – | – | – | –
O=c1c(-n2cccn2)nc(Cl)c(-c2c(F)cccc2F)n1-c1cc(F)cc(F)c1 [compound 384] | 15* % | 0* % | 98* % | 0* % | 100* % | 99* % | 99* % | 59* % | 0* % | 47* % | 90* % | – | – | – | – | – | – | – | – | – | –
Cc1ccn(-c2nc(Cl)c(-c3c(F)cccc3F)n(-c3cc(F)cc(F)c3)c2=O)n1 [compound 385] | 0* % | 0* % | 100* % | 0* % | 100* % | 99* % | 99* % | 89* % | 0* % | 78* % | 99* % | – | – | – | – | – | – | – | – | – | –
O=c1c(-n2cccn2)nc(Cl)c(-c2c(F)cccc2F)n1-c1ccc(F)cc1F [compound 386] | 57* % | 0* % | 96* % | 0* % | 100* % | 99* % | 100* % | 68* % | 0* % | 99* % | 87* % | – | – | – | – | – | – | – | – | – | –
Cc1ccn(-c2nc(Cl)c(-c3c(F)cccc3F)n(-c3ccc(F)cc3F)c2=O)n1 [compound 387] | 0* % | 0* % | 99* % | 0* % | 100* % | 99* % | 89* % | 0* % | 0* % | 60* % | 0* % | – | – | – | – | – | – | – | – | – | –
CC(C)Cn1c(-c2c(Cl)cc(C(F)(F)F)cc2Cl)c(Cl)nc(-n2cccn2)c1=O [compound 391] | 0* % | 0* % | 33* % | 0* % | 88* % | 0* % | 0* % | 0* % | 0* % | 0* % | 0* % | – | – | – | – | – | – | – | – | – | –
CCC(C)Cn1c(-c2c(F)cc(F)cc2F)c(Cl)nc(C(=O)NOC)c1=O (stereo not shown) [compound 417] | – | – | – | – | 100* % | 99* % | 60* % | – | – | 0* % | 71* % | – | 86 | 93 | 0 | 0 | 76 | 0 | – | – | –
CC(=O)Nc1nc(Cl)c(-c2c(F)cccc2F)n(CC(C)C)c1=O [compound 423] | – | – | 46* % | – | – | – | – | – | – | – | – | 95 | 0 | 0 | – | 60 | 97 | 0 | 97 | 100 | Test H disease control rating [7, 13]: 0%; Test B disease control rating [11, 13]: 0%
Cc1nc(C#N)c(=N)n(CC(C)C)c1-c1ccc(F)cc1F [compound 425] | – | – | – | – | – | – | – | – | – | – | – | 0 | 0 | 16 | 3 | 0 | 0 | 0 | 0 | 0 | Test H disease control rating [7, 13]: 0%; Test B disease control rating [11, 13]: 0%
Cc1nc(C(N)=O)c(=N)n(CC(C)C)c1-c1ccc(F)cc1F [compound 427] | – | – | – | – | – | – | – | – | – | – | – | 0 | 0 | 0 | 0 | 0 | 0 | 0 | 0 | 0 | Test H disease control rating [7, 13]: 0%; Test B disease control rating [11, 13]: 0%
CCC(C)Cn1c(-c2ccc(F)cc2F)c(C)nc(C(N)=O)c1=N (stereo not shown) [compound 428] | – | – | – | – | – | – | – | – | – | – | – | 0 | 0 | 0 | 87 | 0 | 0 | 0 | 95 | 49 | Test H disease control rating [7, 13]: 0%; Test B disease control rating [11, 13]: 0%
CC(C)Cn1c(-c2ccc(F)cc2F)c(F)nc(C(N)=O)c1=N [compound 429] | – | – | – | – | – | – | – | – | – | – | – | 0 | 0 | 0 | 0 | 62 | 0 | 88 | 0 | 0 | Test H disease control rating [7, 13]: 0%; Test B disease control rating [11, 13]: 0%
CC(=O)N=c1c(C#N)nc(C)c(-c2ccccc2)n1CC(C)C [compound 431] | – | – | – | – | – | – | – | – | – | – | – | 16 | 46 | 0 | 0 | 28 | 0 | 88 | 32 | 37 | Test H disease control rating [7, 13]: 0%; Test B disease control rating [11, 13]: 0%
